System: sentinel lymph node (SLN)
Experiment: Sentinel lymph node detection after submucosal injection in stomach and small intestine of laparotomized pig, observed by color change
Type: in vivo
Settings: 0.5 mL submucosal
Description: A pig was laparotomized under general anesthesia and the mixture of the sodium hyaluronate and the patent blue prepared in (1) above and patent blue alone as a control were each injected at two locations which were in the tissues (submucosal) of the stomach and small intestine at 0.5 mL each, and migration from the lymphatic vessels to the lymph nodes was monitored for 3 hours after injection based on the changes in color under laparotomy. […] In addition, the colored lymph nodes were investigated histologically after 3 hours and after 24 hours. A pig was laparotomized under general anesthesia and the mixture of the sodium hyaluronate and the ferumoxides injection solution prepared in (1) above and the ferumoxides injection solution alone as a control were each injected at two locations which were in the tissues (submucosal) of the stomach and small intestine at 0.5 mL each, and migration from the lymphatic vessels to the lymph nodes was monitored for 3 hours after injection based on the changes in color under laparotomy. […] In addition, the colored lymph nodes were investigated histologically after 3 hours and after 24 hours. […]

Q: `CCN(CC)c1ccc(C(=C2C=CC(=[N+](CC)CC)C=C2)c2cc(O)c(S(=O)(=O)O)cc2S(=O)(=O)O)cc1` [patent blue] was tested. Which “time to almost complete disappearance from the associated lymphatic system” value (after injection) did it give?
A: ≤ 2 h

Q: And the “time until staining of the lymphatic system / SLN after injection” value (stomach and small intestine wall)?
A: several minutes
